This is an account of results in paper PMC6934184, “Selective DNA-PKcs inhibition extends the therapeutic index of localized radiotherapy and chemotherapy” (The Journal of Clinical Investigation, 2019).

This test deals with T1, RIPK3 (Homo sapiens, UniProt Q9Y572).
T1 construct: purchased Thermo Fisher Scientific (Life Technologies) SelectScreen
Description: SelectScreen LanthaScreen. In kind it is binding. The settings on record: read-out: % displacement. The procedure, abridged: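 SelectScreen broad panel; activity (Z'LYTE, Adapta) plus binding formats. ATP: Km app for CSF1R Z'LYTE; 10 for CAMK1 Adapta. Readout = % per kinase.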

SMILES strings stand for the structures.

T1 sequence (Q9Y572 whole entry): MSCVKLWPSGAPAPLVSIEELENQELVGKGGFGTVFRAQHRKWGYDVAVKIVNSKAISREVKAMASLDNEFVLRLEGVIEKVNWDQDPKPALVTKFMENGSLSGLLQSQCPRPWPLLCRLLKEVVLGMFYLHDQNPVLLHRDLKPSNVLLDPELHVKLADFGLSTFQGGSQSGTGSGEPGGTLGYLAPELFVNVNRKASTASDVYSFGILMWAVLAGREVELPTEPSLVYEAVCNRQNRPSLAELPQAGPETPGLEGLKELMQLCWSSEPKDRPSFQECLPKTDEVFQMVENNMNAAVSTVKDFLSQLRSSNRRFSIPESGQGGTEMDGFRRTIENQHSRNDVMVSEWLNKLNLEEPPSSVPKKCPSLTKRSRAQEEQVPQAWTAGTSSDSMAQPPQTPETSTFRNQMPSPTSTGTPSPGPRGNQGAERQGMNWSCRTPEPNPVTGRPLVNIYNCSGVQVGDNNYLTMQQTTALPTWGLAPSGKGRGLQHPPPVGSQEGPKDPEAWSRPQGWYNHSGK

Consider `CN(C(=O)CN1CCOCC1)c1ccc2sc3c(-c4cccc5c(=O)cc(N6CC7CCC(C6)O7)oc45)cccc3c2c1` [NU5455], for which the inhibition at 1 µM is -2.3%.
